# Data: patent US20260234173A1, “STRUCTURED MOLECULAR VECTORS FOR ANTI-INFLAMMATORY COMPOUNDS AND USES THEREOF” (Universite Claude Bernard Lyon 1, priority 2019, published 2026)
# How the values were obtained:
# [1] = tested on: CA1 pyramidal neurons in hippocampal slices from rats subjected to Pilo-SE; assay: Hippocampal LTP in slices from Pilo-SE rats, compound perfused in the bath (ex vivo); type: cell-based, rat; conditions: slices 1-2 weeks post Pilo-SE
# Protocol: (§1) In this experiment we used male Sprague-Dawley rats (ENVIGO, Netherlands). Pups were received at 14 day-old (postnatal day 14 (P14)) with their foster mother, and were maintained in groups of 10 in plastic cages (405 mm×255 mm×197 mm) with free access to food and water. All animal procedures are in accordance with the guidelines of the Animal Care and Use Committee of the University Claude Bernard Lyon 1.
# (§2) All injected solutions were prepared in sterile saline (0.9% w/v). At weaning (postnatal day 20 (P20)), Sprague-Dawley male rat pups were first injected i.p. with lithium chloride (127 mg/Kg; Sigma-Aldrich), to decrease the dose of pilocarpine needed to trigger Status Epilepticus (SE). Scopolamine methylnitrate (1 mg/Kg; Sigma-Aldrich) was injected s.c. 18 h later, to alleviate peripheral cholinergic adverse side effects. Pilocarpine hydrochloride (25 mg/Kg; Sigma-Aldrich) was injected i.p. 30 min later, to induce SE. […] The rats were placed on a heated pad, under continuous observation, until they recovered from sedation. Following recovery, the rats were returned to the nursing mother until P23. Control rats only received saline injections. All rats were then housed in groups of 10 and weighed daily, during the 5 following days, to control for food intake, and then twice weekly until the end of experiment (three weeks post SE).
# (§3) At P28-38, Sprague-Dawley rats were anesthetized with isoflurane, the forebrain was removed and placed in ice cold standard artificial cerebrospinal fluid (ACSF), consisting of (in mM): 124 NaCl, 5 KCl, 1.25 Na2HPO4, 2 MgSO4, 2 CaCl2), 26 NaHCO3, supplemented with 10 D-glucose, and bubbled with 95% O2 and 5% CO2. Hippocampal transverse slices were cut into 350 μm thick sections, using a vibratome (Leica VT1000S), and incubated in ACSF at room temperature for at least 1 h, before the transfer to the recording chamber. The ACSF used for perfusion was supplemented with picrotoxin (100 μM; Sigma-Aldrich), to block GABA-A receptors and therefore to facilitate the induction of NMDA receptors-dependent Long-Term Potentiation (LTP). CA1 pyramidal cells were visualized with a Zeiss Axioskop 2, equipped with a X40 objective, using infrared video microscopy and differential interference contrast optics. Whole-cell recordings from pyramidal neurons in the CA1 layer were obtained with patch electrodes, which were filled with a solution containing (in mM): 120 potassium gluconate, 20 KCl, 0.2 EGTA, 2 MgCl2, 10 HEPES, 4 Na2ATP, 0.3 Tris-GTP and 14 mM phosphocreatine (pH 7.3, adjusted with KOH). Drugs were applied in the bath of the hippocampal slices. Electrode resistances ranged from 3-5 MΩ. Series resistance was continually monitored, and experiments were discarded if it changed by >20%.
# Capillary glass pipettes filled with ACSF and connected to an Iso-Flex stimulus isolation unit (A.M.P.I.) were placed in stratum radiatum, to evoke excitatory postsynaptic potentials (EPSPs) in CA1 pyramidal neurons. Cells were held at −70 mV to record EPSPs, and the stimulation strength was set to evoke EPSPs between 5-8 mV. LTP was induced by the theta burst pairing (TBP) protocol, which consisted of EPSPs paired with single back-propagating action potentials (b-APs), timed so that the b-AP (~15 ms delay) occurred at the peak of the EPSPs, as measured in the soma. A single burst contained five pairs delivered at 100 Hz and ten bursts were delivered at 5 Hz per sweep. Three sweeps were delivered at 10 s intervals for a total of 30 bursts (150 b-AP-EPSP pairs). […]
# [2] = tested on: hippocampal LTP in rats subjected to Pilo-SE; assay: Hippocampal LTP in slices from Pilo-SE rats treated in vivo (i.p. or per os); parameters: species or system rat
# Protocol: as §1, §2, §3
# Capillary glass pipettes filled with ACSF and connected to an Iso-Flex stimulus isolation unit (A.M.P.I.) were placed in stratum radiatum, to evoke excitatory postsynaptic potentials (EPSPs) in CA1 pyramidal neurons. Cells were held at −70 mV to record EPSPs, and the stimulation strength was set to evoke EPSPs between 5-8 mV. LTP was induced by the theta burst pairing (TBP) protocol, which consisted of EPSPs paired with single back-propagating action potentials (b-APs), timed so that the b-AP (~15 ms delay) occurred at the peak of the EPSPs, as measured in the soma. A single burst contained five pairs delivered at 100 Hz and ten bursts were delivered at 5 Hz per sweep. Three sweeps were delivered at 10 s intervals for a total of 30 bursts (150 b-AP-EPSP pairs). The b-APs were elicited by direct somatic current injection (1 ms, 1-2 nA). This induction protocol was always applied within 20 min of achieving whole-cell configuration, to avoid “wash-out” of LTP.
# [3] = Hydrosolubility compared with synaptamide; type: physicochemical
# [4] = Metabolic fate of SSL-X1 in the digestive tract of rats after per os administration; type: in vivo; conditions: 227 μg lipid phosphorus per os, sacrificed 5, 8 and 36 hours after administration
# [5] = tested on: SE-induced neuroinflammation (hippocampus and ventral limbic region); assay: Neuroinflammatory response induced by status epilepticus in rats, per os SSL-X1; type: in vivo, rat; conditions: 100 mg/Kg per os 1 h after onset of SE; hippocampus and ventral limbic region 24 h after SE; 21-day-old rats
# From the text: In these experiments, 21-day-old Sprague Dawley rats (ENVIGO, The NETHERLAND) were subjected to pilocarpine-induced status epilepticus (SE) as described below in details (§ B.3). Three groups of rats were constituted: (i) CTRL-NaCl, i.e. control rats that just received NaCl each time a treatment was given in the other groups of rats; (ii) SE-NaCl, i.e. rats that were subjected to SE and that received NaCl per os instead of SSL-X1; (iii) SE-SSL-X1, i.e. rats that were subjected to SE and that were administered with SSL-X1 vector (100 mg/Kg) per os 1 h after the onset of SE. The vectors were dissolved in 100 μL of NaCl. Due to their hydrophobic nature, the preparation was emulsified until complete dissolution of the lipid vector. Twenty-four hours later, rats were sacrificed using a lethal injection of pentobarbital (250 mg/Kg; i.p.) and brain tissues, i.e. the hippocampus (HI) and the ventral limbic region (VLR, which includes the amygdala, the piriform and the insular agranular cortices) were collected and processed as mentioned above (§ B.2.2). Analysis of the expression level of the key markers of neuroinflammation was performed by RT-qPCR as described above using the primer pairs shown in Table 1. […]
# [6] = tested on: NR8383 cells; conditions: LPS 100 ng/mL; compound 10, 100, 500, 1,000 nM within <2 min after LPS; 5 hours
# Protocol: NR8383 cells were seeded at 53,000 cells/cm^2 in T75 flasks, the medium consisted in Ham's F12K medium completed with 1% pen/strep, and 15% fetal bovine serum. When they reached confluence, they were treated with LPS (Sigma, ref 055: B55) at the concentration of 100 ng/mL, and, within less than 2 min after, with one of the following condition: DECA-EA-Pn at 10, 100, 500 or 1,000 nM, or EPA-EA-Pn at 10, 100, 500 or 1,000 ng/mL. Cells were harvested 5 hours later, and the level of IL-6 mRNA was measured by RT-qPCR as in B.2.1.4, with primers listed in table 1.
# [7] = tested on: LPS-induced neuroinflammation (hippocampus and neocortex); assay: LPS-induced neuroinflammation in vivo in rats (RT-qPCR, Neuroinflammation Index); parameters: species or system rat; conditions: 6 h post-LPS
# [8] = tested on: Pilo-SE-induced inflammation in the hippocampus; assay: Resolution of inflammation in hippocampus following pilocarpine-induced status epilepticus (Pilo-SE); type: in vivo, rat; conditions: 2 mg/kg i.p. after 2 h of SE; hippocampus 9 h post-SE; 42-day-old rats
# Protocol: Male Sprague-Dawley rats (Envigo, The Netherlands) were subjected to Pilo-SE at 42 days of age (185 g). SE was triggered by pilocarpine hydrochlorate (350 mg/kg, i.p.), 30 min after the administration of scopolamine methylnitrate (1 mg/kg, s.c.), used to reduce peripheral side effects of pilocarpine. After 2 h of continuous SE, rats were administered with diazepam (10 mg/kg, i.p.) to stop SE, and then immediately treated with SYN (2 mg/kg, i.p.), SYN-Pn (2 mg/kg, i.p.) in 300 μL of NaCl. Non-treated rats subjected to Pilo-SE were injected with 300 μL of NaCl (i.p.) instead of SYN or SYN-Pn. All rats received a second administration of diazepam (5 mg/kg, s.c.), 1 h after the first one, and sacrificed 9 h post-SE. The brains were collected, the hippocampus microdissected on ice, the RNA extracted and RT-qPCR performed as described above using the primer pairs shown in Table 1. The time at which rats were sacrificed was chosen based on our preliminary experiments that allowed us to determine that the peak of brain inflammation was observed 7-12 hours after the onset of SE.
# [9] = tested on: epileptic rats (post Pilo-SE); assay: Morris water maze (MWM) spatial learning in epileptic rats; type: in vivo, rat; conditions: epileptic rats injected during the first week post-SE, tested 5 weeks post-SE, versus saline
# Protocol: All injected solutions were prepared in sterile saline (0.9% w/v). At weaning (postnatal day 20 (P20)), Sprague-Dawley male rat pups were first injected i.p. with lithium chloride (127 mg/Kg; Sigma-Aldrich), to decrease the dose of pilocarpine needed to trigger Status Epilepticus (SE). Scopolamine methylnitrate (1 mg/Kg; Sigma-Aldrich) was injected s.c. 18 h later, to alleviate peripheral cholinergic adverse side effects. Pilocarpine hydrochloride (25 mg/Kg; Sigma-Aldrich) was injected i.p. 30 min later, to induce SE. After 30 min of continuous behavioral SE, diazepam (Valium®, Roche) was injected i.p. at 10 mg/Kg, to promote survival and initiate cessation of behavioral seizures, that completely stopped after a second s.c. injection of diazepam, given 90 min later at the dose of 5 mg/Kg. The rats were placed on a heated pad, under continuous observation, until they recovered from sedation. Following recovery, the rats were returned to the nursing mother until P23. Control rats only received saline injections. […]
# Spatial learning ability was measured at 5 weeks post-SE by the Morris water maze (MWM). […]
# The statistical analyses were performed using SigmaPlot software version 12. […] For MWM test, data were analyzed by two-way repeated measures ANOVA followed by Fisher LSD post hoc tests to compare differences between groups at several time points.
# [10] = 2 mg/kg i.p., 1 h after cessation of SE then daily
# [11] = 5 mg/kg i.p., 1 h after cessation of SE then daily
molecule,measurement,setting,value
CC/C=C\C/C=C\C/C=C\C/C=C\C/C=C\C/C=C\CCC(=O)NCCOP(=O)(O)O [synaptamide phosphate],"LTP magnitude (EPSP amplitude, % of baseline)",[1]; bath application 100 nM,144.5±9.39%
same,"LTP magnitude (EPSP amplitude, % of baseline)",[2]; [10],168.9±7.1%
same,"LTP magnitude (EPSP amplitude, % of baseline)",[2]; [11],162.3±10.8%
same,hydrosolubility relative to synaptamide,[3],more hydrosoluble than synaptamide
CCC=CCC=CCC=CCC=CCC=CCC=CCCC(=O)NC(COP(=O)(O)CCN)C(O)C=CCCCCCCCCCCCCC (stereo not shown) [SSL-X1],distribution of SSL-X1 along the intestinal tract,[4],able to reach the colon
same,"induction of MCP1, IL6 and COX-2 transcripts after SE",[5],partially prevented
"CCCCCCCCCC(=O)O.NCCO.O=[PH](O)O [DECA-EA-Pn, decanoic acid ethanolamine phosphonate]",induction of IL-6 mRNA levels,[6],significantly reduced
same,"LTP magnitude (EPSP amplitude, % of baseline)",[2]; [11],130.3±7%
eicosapentaenoic acid ethanolamine phosphonate [EPA-EA-Pn],induction of IL-6 mRNA levels,[6],significantly reduced
same,"LTP magnitude (EPSP amplitude, % of baseline)",[2]; [11],154.4±12.1%
"CC/C=C\C/C=C\C/C=C\C/C=C\C/C=C\C/C=C\CCC(=O)O [DHA, docosahexaenoic acid, reference compound]","LTP magnitude (EPSP amplitude, % of baseline)","[2]; per os, dose equivalent to 100 mg/kg of Synaptamide phosphonate",129.5±10.2%
"CC/C=C\C/C=C\C/C=C\C/C=C\C/C=C\C/C=C\CCC(=O)NCCO [synaptamide, N-Docosahexaenoylethanolamine, reference compound]",LPS-mediated induction of transcripts encoding neuroinflammatory markers,"[7]; 2 mg/Kg synaptamide equivalent i.p. one minute after LPS 1 mg/Kg, 21-day-old rats",partially prevent
same,reduction of the Neuroinflammatory Index measured both in the hippocampus and the neocortex,[7]; 2 mg/Kg synaptamide equivalent i.p. one minute after LPS,~ 50%
same,induction of IL1β mRNA in response to Pilo-SE,[8],reduced
same,"LTP magnitude (EPSP amplitude, % of baseline)",[1]; bath application 100 nM,166.8±12.2%
same,"LTP magnitude (EPSP amplitude, % of baseline)",[1]; bath application 400 nM,164.2±20.5%
same,"LTP magnitude (EPSP amplitude, % of baseline)",[2]; [10],189.7±11.4%
same,"LTP magnitude (EPSP amplitude, % of baseline)",[2]; [11],151.54±7.15%
same,"LTP magnitude (EPSP amplitude, % of baseline)","[2]; 10 mg/kg i.p., 1 h after cessation of SE then daily",195.2±8%
same,spatial learning in MWM (latency to find the platform),[9],significantly increased spatial learning acquisition
CCC=CCC=CCC=CCC=CCC=CCC=CCCC(=O)NCCP(=O)(O)OCC(N)C(O)C=CCCCCCCCCCCCCC (stereo not shown) [SSLX2],"LTP magnitude (EPSP amplitude, % of baseline)","[2]; per os, dose equivalent to 10 mg/kg of Synaptamide phosphonate",135.6±9.9%
same,"LTP magnitude (EPSP amplitude, % of baseline)","[2]; per os, dose equivalent to 30 mg/kg of Synaptamide phosphonate",172.9±6.5%
